# US8481521B2, “Methods of treating cell proliferative disorders” (Rigel Pharmaceuticals, Inc., priority 2005, dated 2013)
# “And” between values parts separate entries of the source, which are not always exact repeats. Equal entries are not always repeated. Where two headings read alike, the source gives them in different places.
# System: MV4-11 human acute myeloid leukemia cells
# Type: in vivo
# Conditions: for Hazard ratio: 40 mg/kg PO bid vs vehicle; for % Reduction from Vehicle Control, Bone Marrow / % Reduction from Vehicle Control, Peripheral blood: 40 mg/kg PO, bid daily
# Procedure: At the end of the acclimatization period for the animals (>3 weeks in this study), mice were pretreated with sterile filtered (using a […] syringe filter) Cyclophosphamide prepared in 0.9% sterile saline (Sigma, St Louis, Mo.) by intraperitoneal injection of 150 mg/kg/day for 2 days followed by a rest period of 72 hours prior to intravenous (i.v.) injection of leukemia cells via the lateral tail vein, as described below.
# On day 0 of the study, mice were inoculated once by intravenous tail vein injection of 5 or 10 million human MV4-11 leukemia cells resuspended in 100 microliters of fresh media as outlined in Table 1.
# After mice were inoculated with human MV4-11 cells (day 0), dosing began on day 17 of the study. Mice were dosed orally (PO) twice daily (bid) for the duration of the study with either Vehicle or 40 mg/kg VII at 5 mL/kg dose volume with a minimum separation of 8 hours between doses
# This study was designed to assess the effects of various doses of VII on tumor engraftment, disease progression, severity, and overall survival in a murine intravenous MV4-11 leukemia model using NOD-SCID immunocompromised mice as a host with cyclophosphamide pretreatment to enhance tumor engraftment.
# This study was conducted in an effort to confirm a previous efficacy data from study, but also to determine if 5 or 10 million cell inoculations would yield similar inconsistencies in tumor cell engraftment in the bone marrow and peripheral blood or alter the resultant mortality in these mice. Since a detectable level of engraftment in some animals was observed as early as 4 weeks post tumor cell injection in pilot studies and historical efficacy data had been determined with this regimen, animals were treated orally (PO) with vehicle or R945788 calcium salt at 40 mg/kg on a twice per day (bid) schedule, every day beginning approximately 2 weeks after tumor cell injection. Animals were continued on this regimen until euthanized or until the end of the study. In this experiment, all surviving mice were terminated when mice reached approximately 5 months of age (day 83 of the study) in order to limit the affects of the spontaneous thymoma development, which can be seen in NOD-SCID mice beginning at approximately 5-6 months of age.
# On day 0 (Aug. 12, 2005), mice were i.v. injected with human MV4-11 cells in fresh medium at 5 or 10 million cells per mouse via the lateral tail vein. By day 3 post MV4-11 cell injection (on Aug. 15, 2005), one mouse was excluded due to early death from excessive body weight loss prior to randomization or treatment, potentially due to cyclophosphamide treatment. Remaining animals were randomized into treatment groups using body weights and dosing began on day 17 post cell injection (Aug. 29, 2005). Mean body weights of groups 1-4 were 20.66±0.43, 20.23±0.41, 20.18±0.54, and 20.88±0.59, respectively. Treatment groups are outlined in Table 1:
# Overall disease severity was determined from a combination of body weight loss, clinical observations, necropsy findings, and quantitation of tumor cell engraftment in selected tissues. Mice were weighed 2-3 times weekly and percent weight change calculated. At the first indication of morbidity, hind limb paralysis with apparent wasting, severe cachexia or weight loss greater than 20%, involving lethargy, ruffled fur etc, as outlined in IACUC Protocol Rigel 6-2002 “Efficacy of Novel Chemotherapeutics in Human/Mouse Tumor Xenograft Models”, animals were removed from the study and euthanized. At sacrifice, animals were anesthetized with CO2 gas and blood was be collected by cardiocentesis. Blood from animal was transferred to K2EDTA coated Microtainer (lavendar top) tubes. Whole blood was placed indirectly on ice and processed for flow cytometric staining, as described in section below. To further assess disease severity, the location and description of palpable or suspected tumors on gross examination was carefully noted upon necropsy. […]
# [1] = 5 million cells, 40 mg/kg, at sacrifice, listed as VII
structure (smiles),measurement,setting,value
"COc1cc(Nc2ncc(F)c(Nc3ccc4c(n3)N(COP(=O)(O)O)C(=O)C(C)(C)O4)n2)cc(OC)c1OC [Compound 4, N4-(2,2-dimethyl-4-[(dihydrogenphosphonoxy)methyl]-3-oxo-5-pyrido[1,4]oxazin-6-yl)-5-fluoro-N2-(3,4,5-trimethoxyphenyl)-2,4-pyrimidinediamine]",Median DOD (day of death),"5E6 MV4-11 cells i.v., 40 mg/kg PO bid from day 17",79 days
same,Hazard ratio,5E6 cells,3.5
same,% ILS (percent increase in life-span),"5E6 cells, 40 mg/kg PO bid, vs vehicle median DOD 54 days",45%
same,animals necropsied showing visible or palpable tumors,"5 million cells, 40 mg/kg",3 out of 11
same,animals terminated by study termination,"5 million cells, 40 mg/kg",7 of 12
same,surviving mice at day 83,"5 million cells, 40 mg/kg PO bid, group of 12",5
same,"% Reduction from Vehicle Control, Bone Marrow",5 million cells,96%
same,"% Reduction from Vehicle Control, Peripheral blood",5 million cells,99%
same,Bone Marrow: Mean % Tumor Cells (CD33+HLA+),[1],1% and 1.03%
same,Peripheral Blood: Mean % Tumor Cells (CD33+HLA+),[1],0.6% and 0.59%
same,Hazard ratio,10E6 cells,7.6
same,animals necropsied showing visible or palpable tumors,"10 million cells, 40 mg/kg",7 out of 13
same,animals terminated by study termination,"10 million cells, 40 mg/kg",4 out of 13
same,surviving mice at day 83,"10 million cells, 40 mg/kg PO bid, group of 13",9
same,"% Reduction from Vehicle Control, Bone Marrow",10 million cells,59%
same,"% Reduction from Vehicle Control, Peripheral blood","10 million cells, all samples",80%
same,Peripheral Blood: Mean % Tumor Cells (CD33+HLA+),"10 million cells, 40 mg/kg, all samples",10.32%
same,Bone Marrow: Mean % Tumor Cells (CD33+HLA+),"10 million cells, 40 mg/kg, at sacrifice, listed as VII",5% and 5.21%
same,mice survived to Day 83,"10 million cells, 40 mg/kg, vehicle 0%",Over 50%
same,tolerability in NOD-SCID mice,"mouse, in vivo",well tolerated
